Measured values: patent US10689354B2, “Aminoazole derivative” (Teijin Pharma Limited, priority 2015, dated 2020)

Key:
[1] = target: T1, androgen receptor (AR-LBD) (Rattus norvegicus, UniProt P15207); assay: Evaluation of androgen receptor affinity (PolarScreen Androgen Receptor Competitor Assay Kit, Red; fluorescence polarization); conditions: 22° C. for 5 hours, relative to binding rate of 1 μM DHT, read-out: AR affinity (pEC50) (converted)
T1 construct: 5 μL of 2×AR-LBD/Fluoromone AL Red Complex contained in the kit; purchased Invitrogen
T1 sequence (P15207 651-882 limits assumed): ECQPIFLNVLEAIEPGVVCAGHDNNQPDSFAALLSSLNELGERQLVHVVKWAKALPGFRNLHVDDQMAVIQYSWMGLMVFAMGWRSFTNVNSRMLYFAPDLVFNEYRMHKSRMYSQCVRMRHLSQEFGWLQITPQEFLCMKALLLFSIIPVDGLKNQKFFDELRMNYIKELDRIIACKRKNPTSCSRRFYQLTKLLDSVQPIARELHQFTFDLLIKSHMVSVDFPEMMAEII
In short: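 Duplicate wells of test compound were mixed with the kit's rat AR-LBD–Fluoromone AL Red tracer complex and left 5 hours at 22 °C before polarization was read. A 4-parameter fit gave pEC50, with binding rate referenced to 1 μM dihydrotestosterone.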

human androgen receptor = target: T2, human androgen receptor (Homo sapiens, UniProt P10275); assay: Reporter assay of an androgen receptor responsive sequence (luciferase, transiently transfected HEK293 cells); assay type: cell-based; conditions: 24 hours incubation, relative to activity of 100 nM DHT, read-out: AR transcriptive activity (pEC50) (converted)
T2 construct: expressed in transfected cells; host or cells: HEK293
T2 sequence (P10275 1-920): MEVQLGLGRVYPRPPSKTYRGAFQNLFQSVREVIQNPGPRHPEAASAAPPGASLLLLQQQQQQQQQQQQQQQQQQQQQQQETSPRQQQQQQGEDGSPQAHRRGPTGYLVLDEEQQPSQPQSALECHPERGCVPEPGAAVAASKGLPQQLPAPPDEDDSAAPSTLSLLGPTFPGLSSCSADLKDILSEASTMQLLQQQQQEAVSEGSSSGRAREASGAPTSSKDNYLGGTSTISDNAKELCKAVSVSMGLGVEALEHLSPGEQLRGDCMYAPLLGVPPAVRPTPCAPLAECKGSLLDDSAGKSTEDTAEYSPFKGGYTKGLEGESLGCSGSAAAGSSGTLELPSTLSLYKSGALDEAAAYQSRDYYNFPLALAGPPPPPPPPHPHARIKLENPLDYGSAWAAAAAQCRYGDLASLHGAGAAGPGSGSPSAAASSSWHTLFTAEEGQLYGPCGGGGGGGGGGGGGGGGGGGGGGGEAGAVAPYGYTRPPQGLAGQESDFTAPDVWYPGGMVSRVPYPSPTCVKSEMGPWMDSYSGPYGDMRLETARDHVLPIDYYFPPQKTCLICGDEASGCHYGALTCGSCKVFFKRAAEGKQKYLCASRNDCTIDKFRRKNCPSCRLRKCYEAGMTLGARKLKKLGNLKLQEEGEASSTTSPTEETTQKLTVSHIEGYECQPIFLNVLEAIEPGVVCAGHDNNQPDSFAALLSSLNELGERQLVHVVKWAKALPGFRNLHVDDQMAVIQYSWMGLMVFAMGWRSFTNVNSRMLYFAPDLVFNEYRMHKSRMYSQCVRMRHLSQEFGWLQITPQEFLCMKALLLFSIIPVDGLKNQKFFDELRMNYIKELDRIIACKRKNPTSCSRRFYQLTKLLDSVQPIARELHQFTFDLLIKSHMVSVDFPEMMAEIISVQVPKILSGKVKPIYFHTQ
In short: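 Agonism scored as pEC50, fitted by 4-parameter curve against the response to 100 nM DHT, from dual-luciferase readout after 24 h compound treatment. Cells were HEK293 co-transfected (3 h) with human AR expression vector, androgen-responsive firefly reporter and Renilla control, in charcoal-stripped serum.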

| Structure (SMILES) | EC50 [1] | EC50 (human androgen receptor) |
| --- | --- | --- |
| Cc1sc(N(Cc2ccccc2F)c2ccc(C#N)cc2)nc1C(=O)NS(C)(=O)=O [Compound 13, 2-[4-cyano-N-[(2-fluorophenyl)methyl]anilino]-5-methyl-N-methylsulfonyl-thiazole-4-carboxamide] | 0.0501 µM | 0.316 µM |
| Cc1sc(N(CCc2cccc(Cl)c2)c2ccc(C#N)cc2)nc1C(=O)NS(C)(=O)=O [Compound 139, 2-[N-[2-(3-chlorophenyl)ethyl]-4-cyano-anilino]-5-methyl-N-methylsulfonyl-thiazole-4-carboxamide] | 0.0794 µM | 1.58 µM |
| Cc1sc(N(Cc2ccccc2)c2ccc3ncccc3c2)nc1C(=O)NS(C)(=O)=O [Compound 54, 2-[benzyl(6-quinolyl)amino]-5-methyl-N-methylsulfonyl-thiazole-4-carboxamide] | 0.398 µM | 1.58 µM |
| Cc1sc(N(Cc2cccc(F)c2F)c2ccc(C#N)cc2)nc1C(=O)NS(C)(=O)=O [Compound 102, 2-[4-cyano-N-[(2,3-difluorophenyl)methyl]anilino]-5-methyl-N-methylsulfonyl-thiazole-4-carboxamide] | 0.0794 µM | 0.0501 µM |
| Cc1sc(N(Cc2ccc(F)c(Cl)c2)c2ccc(C#N)cc2)nc1C(=O)NS(C)(=O)=O [Compound 117, 2-[N-[(3-chloro-4-fluoro-phenyl)methyl]-4-cyano-anilino]-5-methyl-N-methylsulfonyl-thiazole-4-carboxamide] | 0.0251 µM | 0.0631 µM |
| Cc1sc(N(CCc2ccc(F)c(F)c2)Cc2ccccc2)nc1C(=O)NS(C)(=O)=O [Compound 148, 2-[benzyl-[2-(3,4-difluorophenyl)ethyl]amino]-5-methyl-N-methylsulfonyl-thiazole-4-carboxamide] | 0.0251 µM | 0.1 µM |
| Cc1sc(N(Cc2ccc3c(c2)OCO3)c2ccc(C#N)cc2)nc1C(=O)NS(C)(=O)=O [Compound 128, 2-[N-(1,3-benzodioxol-5-ylmethyl)-4-cyano-anilino]-5-methyl-N-methylsulfonyl-thiazole-4-carboxamide] | 0.0398 µM | 0.1 µM |
| Cc1sc(N(CCc2ccc(C#N)cc2)Cc2ccc(Cl)cc2)nc1C(=O)NS(=O)(=O)Cc1cccc(F)c1 [Compound 322, 2-[(4-chlorophenyl)methyl-[2-(4-cyanophenyl)ethyl]amino]-N-[(3-fluorophenyl)methylsulfonyl]-5-methyl-thiazole-4-carboxamide] | 0.0631 µM | > 10 µM |
| Cc1sc(N(CCc2ccc3ccccc3c2)c2ccc(C#N)cc2)nc1C(=O)NS(C)(=O)=O [Compound 88, 2-[4-cyano-N-[2-(2-naphthyl)ethyl]anilino]-5-methyl-N-methylsulfonyl-thiazole-4-carboxamide] | 0.316 µM | > 10 µM |
| Cc1sc(N(CCc2ccccc2F)Cc2ccccc2)nc1C(=O)NS(C)(=O)=O [Compound 339, 2-[benzyl-[2-(2-fluorophenyl)ethyl]amino]-5-methyl-N-methylsulfonyl-thiazole-4-carboxamide] | 0.0398 µM | 2 µM |

The next lines start with the values.

| EC50 [1] | EC50 (human androgen receptor) | Structure (SMILES) |
| --- | --- | --- |
| 0.126 µM | 3.98 µM | Cc1oc(N(Cc2cccc(F)c2)c2ccc(C#N)cc2)nc1C(=O)NS(C)(=O)=O [Compound 612, 2-[4-cyano-N-[(3-fluorophenyl)methyl]anilino]-5-methyl-N-methylsulfonyl-oxazole-4-carboxamide] |
| 0.0316 µM | 1.26 µM | Cc1sc(N(CCc2ccc(Cl)cc2)Cc2ccc(C#N)cc2)nc1C(=O)NS(C)(=O)=O [Compound 503, 2-[2-(4-chlorophenyl)ethyl-[(4-cyanophenyl)methyl]amino]-5-methyl-N-methylsulfonyl-thiazole-4-carboxamide] |
| 0.0631 µM | 1.26 µM | CCS(=O)(=O)NC(=O)c1nc(N(CCc2ccc(Cl)cc2)Cc2ccc(OC(F)(F)F)cc2)sc1C [Compound 701, 2-[2-(4-chlorophenyl)ethyl-[[4-(trifluoromethoxy)phenyl]methyl]amino]-N-ethylsulfonyl-5-methyl-thiazole-4-carboxamide] |
| 0.316 µM | 5.01 µM | Cc1oc(N(CCc2ccc(C#N)cc2)Cc2ccc(C(F)(F)F)nc2)nc1C(=O)NS(C)(=O)=O [Compound 555, 2-[2-(4-cyanophenyl)ethyl-[[6-(trifluoromethyl)-3-pyridyl]methyl]amino]-5-methyl-N-methylsulfonyl-oxazole-4-carboxamide] |
| 0.1 µM | 0.158 µM | COCCCS(=O)(=O)NC(=O)c1nc(N(Cc2ccc(C(F)(F)F)c(C#N)c2)c2ccc(C#N)cc2)sc1C [Compound 534, 2-[4-cyano-N-[[3-cyano-4-(trifluoromethyl)phenyl]methyl]anilino]-N-(3-methoxypropylsulfonyl)-5-methyl-thiazole-4-carboxamide] |
| 0.2 µM | > 10 µM | Cc1sc(N(CCc2ccc(C#N)cc2)Cc2ccc(OC(F)(F)F)cc2)nc1C(=O)NS(=O)(=O)Cc1cccc(F)c1 [Compound 727, 2-[2-(4-cyanophenyl)ethyl-[[4-(trifluoromethoxy)phenyl]methyl]amino]-N-[(3-fluorophenyl)methylsulfonyl]-5-methyl-thiazole-4-carboxamide] |
| 0.2 µM | > 10 µM | COCCCS(=O)(=O)NC(=O)c1nc(N(Cc2ccc(Cl)cn2)c2ccc(C#N)cc2)sc1C1CC1 [Example 283, 2-[N-[(5-chloro-2-pyridyl)methyl]-4-cyano-anilino]-5-cyclopropyl-N-(3-methoxypropylsulfonyl)thiazole-4-carboxamide] |
| 0.2 µM | 1.58 µM | Cc1nc(CN(CCc2ccc(OC(F)F)cc2)c2nc(C(=O)NS(C)(=O)=O)c(C)s2)cs1 [Compound 513, 2-[2-[4-(difluoromethoxy)phenyl]ethyl-[(2-methylthiazol-4-yl)methyl]amino]-5-methyl-N-methylsulfonyl-thiazole-4-carboxamide] |
| 0.126 µM | > 10 µM | CS(=O)(=O)NC(=O)c1nc(N(Cc2ccccc2)c2ccc(C#N)cc2)sc1C(F)F [Example 284, 2-(N-benzyl-4-cyano-anilino)-5-(difluoromethyl)-N-methylsulfonyl-thiazole-4-carboxamide] |
| 0.0631 µM | 0.0794 µM | CCc1sc(N(Cc2ccccc2)c2ccc(C#N)cc2)nc1C(=O)NS(C)(=O)=O [Compound 599, 2-(N-benzyl-4-cyano-anilino)-5-ethyl-N-methylsulfonyl-thiazole-4-carboxamide] |
| 0.1 µM | 0.398 µM | Cc1sc(N(Cc2cnc(C3CC3)s2)c2ccc(C#N)cc2)nc1C(=O)NS(C)(=O)=O [Compound 466, 2-[4-cyano-N-[(2-cyclopropylthiazol-5-yl)methyl]anilino]-5-methyl-N-methylsulfonyl-thiazole-4-carboxamide] |
| 0.02 µM | 0.2 µM | Cc1sc(N(Cc2ccc(OC(F)(F)F)c(Cl)c2)c2ccc(C#N)cc2)nc1C(=O)NS(C)(=O)=O [Compound 421, 2-[N-[[3-chloro-4-(trifluoromethoxy)phenyl]methyl]-4-cyano-anilino]-5-methyl-N-methylsulfonyl-thiazole-4-carboxamide] |
| 0.0501 µM | 0.316 µM | Cc1sc(N(CCc2cccc(F)c2)Cc2ccccc2)nc1C(=O)NS(C)(=O)=O [Compound 685, 2-[benzyl-[2-(3-fluorophenyl)ethyl]amino]-5-methyl-N-methylsulfonyl-thiazole-4-carboxamide] |
| 0.0631 µM | 0.1 µM | CS(=O)(=O)NC(=O)c1nc(N(Cc2ccccc2F)c2ccc(C#N)cc2)sc1Br [Example 242, 5-bromo-2-[4-cyano-N-[(2-fluorophenyl)methyl]anilino]-N-methylsulfonyl-thiazole-4-carboxamide] |
